# Source: patent US20230365563A1, “QUINAZOLINE COMPOUND AND APPLICATION THEREOF” (SHANGHAI PHARMACEUTICALS HOLDING CO., LTD., priority 2020, published 2023)
# Structures can show the parent of a compound that is named as a salt.
# How the values were obtained:
# KRAS_WT and SOS1 = target: T1, KRAS_WT and SOS1 (Homo sapiens, UniProt P01116); test: Inhibition of KRAS_WT/SOS1 binding (Cisbio binding kit, 665/615 ratio), Effect Embodiment C; settings: read-out: GTP-KRAS-WT:SOS1 IC50
# T1 construct: purchased
# Outline: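 Compounds tested as 3-fold, 11-point dilutions in duplicate at 1% DMSO final against the KRAS_WT/SOS1 binding system. IC50 derived by nonlinear regression fit.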
# KRAS_G12D and cRAF = target: T2, KRAS_G12D and cRAF (Homo sapiens, UniProt P01116, G12D); test: Inhibition of KRAS_G12D/cRAF binding (Cisbio binding kit, 665/615 ratio), Effect Embodiment B; settings: read-out: GTP-KRAS-G12D:CRAF IC50
# T2 construct: purchased
# Outline: (§1)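 Duplicate wells received an eleven-point, threefold compound titration whose top point was the stock solution; final DMSO 1%.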
# KRAS-G12D and SOS1 = target: T3, KRAS-G12D and SOS1 (Homo sapiens, UniProt P01116, G12D); test: Inhibition of KRAS-G12D/SOS1 binding (Cisbio binding kit, 665/615 ratio), Effect Embodiment A; settings: read-out: GTP-KRAS-G12D:SOS1 IC50
# T3 construct: purchased
# Outline: as §1
# T1 sequence (P01116 1-188 isoform P01116-2): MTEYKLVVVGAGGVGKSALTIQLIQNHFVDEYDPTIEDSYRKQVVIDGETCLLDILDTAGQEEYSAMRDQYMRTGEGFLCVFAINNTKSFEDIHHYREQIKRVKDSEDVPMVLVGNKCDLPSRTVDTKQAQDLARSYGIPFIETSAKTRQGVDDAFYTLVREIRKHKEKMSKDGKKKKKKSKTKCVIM
# T3 sequence (P01116 1-188 isoform P01116-2 G12D): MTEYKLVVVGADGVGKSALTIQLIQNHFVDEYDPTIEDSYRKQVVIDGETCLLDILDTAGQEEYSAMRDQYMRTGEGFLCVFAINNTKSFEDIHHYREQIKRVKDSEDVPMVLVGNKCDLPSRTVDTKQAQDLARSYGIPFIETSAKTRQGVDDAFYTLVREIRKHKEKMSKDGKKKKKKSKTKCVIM
# T2 sequence (P01116 1-188 isoform P01116-2 G12D): as above
SMILES,IC50 (KRAS_WT and SOS1) [nM],IC50 (KRAS_G12D and cRAF) [nM],IC50 (KRAS-G12D and SOS1) [nM]
"CN(C)C(C)(C)COc1nc(N2CC3CCC(C2)N3)c2cc(Cl)c(-c3cc(O)cc4ccccc34)c(F)c2n1 (single isomer, unassigned) [Compound 104, 4-((S or R)-4-((1R,5S)-3,8-diazabicyclo[3.2.1]octan-3-yl)-6-chloro-2-(2-(dimethylamino)-2-methylpropoxy)-8-fluoroquinazolin-7-yl)naphthalen-2-ol dihydrochloride]",> 10000,248,40.9
"CN1CCC[C@H]1COc1nc(N2CC3CCC(C2)N3)c2cc(F)c(-c3cc(O)cc4ccccc34)c(F)c2n1 (single isomer, unassigned) [Compound 160a, (R or S) 4-(4-((1R,5S)-3,8-diazabicyclo[3.2.1]octan-3-yl)-6,8-difluoro-2-((S)-1-methylpyrrolidin-2-yl)methoxy)quinazolin-7-yl)naphthalen-2-ol dihydrochloride]",152,15.1,19.4
"CN1C[C@@H](F)C[C@H]1COc1nc(N2CC3CCC(C2)N3)c2cnc(-c3cc(O)cc4ccccc34)c(F)c2n1 [Compound 129, 4-(4-((1R,5S)-3,8-diazabicyclo[3.2.1]octan-3-yl)-8-fluoro-2-((2S,4S)-4-fluoro-1-methylpyrrolidin-2-yl)methoxy)pyridinyl[4.3-d]pyrimidin-7-yl)naphthalen-2-ol ditrifluoroacetate]",2270,180,42
"Oc1cc(-c2c(Cl)cc3c(N4C[C@H]5CC[C@@H](C4)N5)nc(OCCCN4C[C@@H]5C[C@H]4CO5)nc3c2F)c2ccccc2c1 (single isomer, unassigned) [Compound 165, (R or S)-4-(2-(3-((1S,4S)-2-oxa-5-azabicyclo[2.2.1]heptan-5-yl)propoxy)-4-((1R,5S)-3,8-diazabicyclo[3.2.1]octan-3-yl)-6-chloro-8-fluoroquinazolin-7-yl)naphthalen-2-ol dihydrochloride]",1880,85.4,27.8
"C[C@H]1COCCN1CCCOc1nc(N2C[C@H]3CC[C@@H](C2)N3)c2cc(Cl)c(-c3cc(O)cc4ccccc34)c(F)c2n1 (single isomer, unassigned) [Compound 174, (R or S)-4-(4-((1R,5S)-3,8-diazabicyclo[3.2.1]octan-3-yl)-6-chloro-8-fluoro-2-(3-((S)-3-methylmorpholinyl)propoxy)quinazolin-7-yl)naphthalen-2-ol diformate]",1820,170,57.8
"CN1CCC[C@H]1COc1nc(N2C[C@H]3C=C[C@@H](C2)N3)c2cnc(-c3cc(O)cc4ccccc34)c(F)c2n1 [Compound 159, 4-(4-((1R,5S)-3,8-diazabicyclo[3.2.1]oct-6-en-3-yl)-8-fluoro-2-(((S)-1-methylpyrrolidin-2-yl)methoxy)pyrido[4,3-d]pyrimidin-7-yl)naphthalen-2-ol diformate]",196,55.2,30.8
"CN(C)CCCOc1nc(N2C[C@H]3CC[C@@H](C2)N3)c2cc(Cl)c(-c3cc(O)cc4ccccc34)c(F)c2n1 (single isomer, unassigned) [Compound 40a, (S or R)-4-(4-((1R,5S)-3,8-diazabicyclo[3.2.1]octan-3-yl)-6-chloro-2-(3-(dimethylamino)propoxy)-8-fluoroquinazolin-7-yl)naphthalen-2-ol]",1040,104,15.2
"Oc1cc(-c2c(Cl)cc3c(N4CC5CCC(C4)N5)nc(OCCCN4C5CCC4COC5)nc3c2F)c2cc(F)ccc2c1 (single isomer, unassigned) [compound 252]",414,48,21.7
"CN(C)C1CN(c2nc(N3CC4CCC(C3)N4)c3cc(Cl)c(-c4cc(O)cc5cccc(F)c45)c(F)c3n2)C1 (single isomer, unassigned) [Compound 64b, 4-((R or S)-4-((1R,5S)-3,8-diazabicyclo[3.2.1]octan-3-yl)-6-chloro-2-(3-(dimethylamino)azetidin-1-yl)-8-fluoroquinazolin-7-yl)-5-fluoronaphthalen-2-ol]",1250,283,44.6
"Oc1cc(-c2c(Cl)cc3c(N4CC5CCC(C4)N5)nc(OCCCN4CCOC5(CC5)C4)nc3c2F)c2ccccc2c1 (single isomer, unassigned) [Compound 240, 4-((S or R)-2-(3-(4-oxa-7-azaspiro[2.5]octan-7-yl)propoxy)-4-((1R,5S)-3,8-diazacyclo[3.2.1]octan-3-yl)-6-chloro-8-fluoroquinazolin-7-yl)naphthalen-2-ol formate]",2210,164,39.1
"CN1CCC[C@H]1COc1nc(N2CC3CCC(C2)N3)c2cc(Cl)c(-c3cc(O)cc4ccccc34)c(F)c2n1 (single isomer, unassigned) [Compound 170, (R or S)-4-(4-((1R,5S)-3,8-diazabicyclo[3.2.1]octan-3-yl)-6-chloro-8-fluoro-2-((S)-1-methylpyrrolidin-2-yl)methoxy)quinazolin-7-yl)naphthalen-2-ol dihydrochloride]",270,24.4,12.8
"Oc1cc(-c2c(Cl)cc3c(N4CC5CCC(C4)N5)nc(OCC(F)CN4CCCC4)nc3c2F)c2ccccc2c1 (single isomer, unassigned) [Compound 109b, 4-((S or R)-4-((1R,5S)-3,8-diazabicyclo[3.2.1]octan-3-yl)-6-chloro-8-fluoro-2-((R or S)-2-fluoro-3-(pyrrolidin-1-yl)propoxy)quinazolin-7-yl)naphthalen-2-ol hydrochloride]",5350,208,58.2
"C[C@H]1C[C@@H](COc2nc(N3CC4CCC(C3)N4)c3cnc(-c4cc(O)cc5ccccc45)c(F)c3n2)N(C)C1 [Compound 133, 4-(4-((1R,5S)-3.8-diazabicyclo[3.2.1]octan-3-yl)-2-((2S,4S)-1,4-dimethylpyrrolidin-2-yl)methoxy)-8-fluoropyridinyl[4,3-d]pyrimidin-7-yl)naphthalen-2-ol trifluoroacetate]",85.4,18.7,19.3
"CN1CC(COc2nc(N3CC4CCC(C3)N4)c3cc(Cl)c(-c4cc(O)cc5ccccc45)c(F)c3n2)C1 (single isomer, unassigned) [Compound 91, 4-((S or R)-4-((1R,5S)-3,8-diazabicyclo[3.2.1]octan-3-yl)-6-chloro-8-fluoro-2-((1-methylazetidin-3-yl)methoxy)quinazolin-7-yl)naphthalen-2-ol tritrifluoroacetate]",1100,78.2,15.1
"CN(CCCCN1CCNCC1)CCCOc1nc(N2C[C@H]3CC[C@@H](C2)N3)c2cc(Cl)c(-c3cc(O)cc4ccccc34)c(F)c2n1 (single isomer, unassigned) [Compound 103, (S or R)-4-(4-((1R,5S)-3,8-diazabicyclo[3.2.1]octan-3-yl)-6-chloro-8-fluoro-2-(3-(methyl(4-(piperazin-1-yl)butyl)amino)propoxy)quinazolin-7-yl)naphthalen-2-ol tetrahydrochloride]",1260,120,19.4
"Oc1cc(-c2c(Cl)cc3c(N4CC5CCC(C4)N5)nc(OCCCN4CC5(CCOC5)C4)nc3c2F)c2ccccc2c1 (single isomer, unassigned) [Compound 263, 4-((S or R)-2-(3-(6-oxa-2-azaspiro[3.4]octan-2-yl)propoxy)-4-((1R,5S)-3,8-diazacyclo[3.2.1]octan-3-yl)-6-chloro-8-fluoroquinazolin-7-yl)naphthalen-2-ol formate]",863,118,23.1
"Oc1cc(-c2c(Cl)cc3c(N4CC5CCC(C4)N5)nc(OCCCN4CCNCC4)nc3c2F)c2ccccc2c1 (single isomer, unassigned) [Compound 92, 4-((S or R)-4-((1R,5S)-3,8-diazabicyclo[3.2.1]octan-3-yl)-6-chloro-8-fluoro-2-(3-(piperazin-1-yl)propoxy)quinazolin-7-yl)naphthalen-2-ol dihydrochloride]",4710,139,37.4
"CCc1c(F)ccc2cc(O)cc(-c3c(Cl)cc4c(N5CC6CCC(C5)N6)nc(OC[C@H](C)CN5C6CCC5COC6)nc4c3F)c12 (single isomer, unassigned) [Compound 233b, 4-((7R or 7S)-2-((2R)-3-(3-oxa-8-azabicyclo[3.2.1]octan-8-yl)-2-methylpropoxy)-4-((1R,5S)-3,8-diazabicyclo[3.2.1]octan-3-yl)-6-chloro-8-fluoroquinazolin-7-yl)-5-ethyl-6-fluoronaphthalen-2-ol formate]",227,7.18,9.1
"CCc1cccc2cc(O)cc(-c3c(F)cc4c(N5CC6CCC(C5)N6)nc(OC[C@H](C)CN5C6CCC5COC6)nc4c3F)c12 (single isomer, unassigned) [Compound 284a, (4S or 4R)-4-(2-((2R)-3-(3-oxa-8-azabicyclo[3.2.1]octan-8-yl)-2-methylpropoxy)-4-((1R,5S)-3,8-diazabicyclo[3.2.1]octan-3-yl)-6,8-difluoroquinazolin-7-yl)-5-ethylnaphthalen-2-ol dihydrochloride]",251,11,17.3
"CN(C)C1CN(c2nc(N3[C@@H]4CC[C@H]3CNC4)c3cc(Cl)c(-c4cc(O)cc5ccccc45)c(F)c3n2)C1 (single isomer, unassigned) [Compound 6a, (R or S)-4-(4-((1R,5S)-3,8-diazabicyclo [3.2.1]octan-8-yl)-6-chloro-2-(3-(dimethylamino)azetidin-1-yl)-8-fluoro-quinazolin-7-yl)naphthalen-2-ol]",293,66,66.4
